Measurements reported in patent US20030099600A1, “Metalloproteinase inhibitors for the treatment of respiratory diseases” (priority 2000, published 2003).

Columns and labels:
[1] = test system: TIMP-1; test: Lung tissue study: TIMP-1 released by human lung tissue in vitro (ELISA); type: cell-based; conditions: 24 hours; for TIMP-1 % of IL-1: 100 U/ml IL-1 stimulated; for TIMP-1 % of control: unstimulated fragments
Protocol: (§1) This study was done to assess the effects of doxycycline on the release of matrix metalloproteinases by human lung tissue in vitro.
(§2) On the following day, 2-3 fragments (total weight 50 mg) were placed in 0.8 ml of culture buffer and 0.1 ml of doxycycline (to give a final concentration of 10^−4-10^−8M) or a buffer control was added.
(§3) After one hours incubation at 37° C., the fragments were treated with either 0.1 ml of either a buffer control (unstimulated fragments) or 1000 U/ml interleukin-1 (final concentration of 100 U/ml IL-1). The fragments were then incubated for 24 hours and the supernatant recovered; the tissue was weighed and stored at −70° C.
(§4) The MMPs and TIMPs released into the supematant were measured using commercial ELISAs (Amersham); values were expressed as ng of MMP/TIMP per mg of lung tissue.

[2] = oral route; cited from earlier work
[3] = test system: MMP-9; test: Lung tissue study: MMP-9 released by human lung tissue in vitro (ELISA); type: cell-based; conditions: 24 hours; for MMP-9 % of IL-1: 100 U/ml IL-1 stimulated; for MMP-9 % of control: unstimulated fragments
Protocol: as §1, §2, §3, §4

[4] = test system: MMP-1; test: Lung tissue study: MMP-1 released by human lung tissue in vitro (ELISA); type: cell-based; conditions: 24 hours; for MMP-1 % of IL-1: 100 U/ml IL-1 stimulated; for MMP-1 % of control: unstimulated fragments
Protocol: as §1, §2, §3, §4
MMP-1 levels are analysed by Elisa plates (Code No. RPN2610) from Amersham Pharmacia Biotech UK Limited, Amersham Place, Little Chalfont, BUCKS HP7 9NA.
(§5) The Elisa is run as per manufacturer's instructions.
This Elisa is specific for total MMP-1; recognising pro MMP-1, active MMP-1 and MMP-1/TIMP-1 complex.

[5] = test system: MMP-9; test: Human study in COPD subjects: MMP-9 levels (ELISA); type: in vivo; conditions: for MMP-9 % of control: capsules 50, 100, 200 mg ascending, 3 days each, 4-day wash out
Protocol: (§6) This was an open-label, ascending dose, cross-over study. Suitable subjects with chronic obstructive pulmonary disease (COPD) had their respiratory function assessed at baseline and provided sputum and blood for MMP and doxycycline levels. They then received 50 mg, 100 mg and 200 mg of doxycycline capsules for a period of 3 days in ascending order. At the end of each treatment period a further assessment of respiratory function was performed, and a sputum and blood sample was analysed for MMP, TIMP-1 and doxycycline levels. There was a 4-day wash out period between each treatment period of the study. The MMPs and TIMPs released were measured using commercial ELISAs as detailed above for the lung tissue study.

[6] = test system: MMP-2; test: Lung tissue study: MMP-2 released by human lung tissue in vitro (ELISA); type: cell-based; conditions: 24 hours; for MMP-2 % of IL-1: 100 U/ml IL-1 stimulated; for MMP-2 % of control: unstimulated fragments
Protocol: as §1, §2, §3, §4
MMP-2 levels are analysed by Elisa plates (Code No. RPN2617) from Amersham Pharmecia Biotech UK Limited, Amersham Place, Little Chalfont, BUCKS HP7 9NA.
as §5
This Elisa is specific for proMMP-2; recognising free proMMP-2 and MMP-2 complexed to TIMP-2, but not the active form of MMP-2. No cross-reactivity with MMP-1, 3, 7, 8, 9 and MT1-MMP.

[7] = test system: TIMP-1; test: Human study in COPD subjects: TIMP-1 levels (ELISA); type: in vivo; conditions: for TIMP-1 % of control: capsules 50, 100, 200 mg ascending, 3 days each, 4-day wash out
Protocol: as §6

[8] = route of administration that avoids first-pass metabolism; cited from earlier work
[9] = Mean of study days 4, 8, 11, 15, 18, COPD subjects

C[C@H]1c2cccc(O)c2C(=O)C2=C(O)[C@]3(O)C(=O)C(C(N)=O)=C(O)[C@@H](N(C)C)[C@@H]3[C@@H](O)[C@@H]21 [doxycycline]
TIMP-1 % of IL-1 ([1]; 10^-4 M): 75.47% | TIMP-1 % of control ([1]; 10^-4 M): 44.49% | TIMP-1 % of IL-1 ([1]; 10^-6 M): 508.92% | TIMP-1 % of control ([1]; 10^-6 M): 182.40% | TIMP-1 % of IL-1 ([1]; 10^-8 M): 461.92% | TIMP-1 % of control ([1]; 10^-8 M): 172.02% | protein binding [2]: very highly protein-bound | MMP-9 % of IL-1 ([3]; 10^-4 M): 51.04% | MMP-9 % of control ([3]; 10^-4 M): 39.36% | MMP-9 % of IL-1 ([3]; 10^-6 M): 99.29% | MMP-9 % of control ([3]; 10^-6 M): 116.84% | MMP-9 % of IL-1 ([3]; 10^-8 M): 127.04% | MMP-9 % of control ([3]; 10^-8 M): 113.57% | MMP-1 % of IL-1 ([4]; 10^-4 M): 14.75% | MMP-1 % of control ([4]; 10^-4 M): 24.05% | MMP-1 % of IL-1 ([4]; 10^-6 M): 61.47% | MMP-1 % of control ([4]; 10^-6 M): 84.10% | MMP-1 % of IL-1 ([4]; 10^-8 M): 51.87% | MMP-1 % of control ([4]; 10^-8 M): 76.50% | MMP-9 % of control ([5]; Day of Study 4, COPD subjects): 39.43% | MMP-9 % of control ([5]; Day of Study 8, COPD subjects): 12.85% | MMP-9 % of control ([5]; Day of Study 11, COPD subjects): 29.17% | MMP-9 % of control ([5]; Day of Study 15, COPD subjects): 22.41% | MMP-9 % of control ([5]; Day of Study 18, COPD subjects): 29.03% | MMP-9 % of control, Mean [5, 9]: 26.58% | reduction in MMP-9 activity ([5]; human patient study): 73% | MMP-2 % of IL-1 ([6]; 10^-4 M): 49.23% | MMP-2 % of control ([6]; 10^-4 M): 34.34% | MMP-2 % of IL-1 ([6]; 10^-6 M): 86.86% | MMP-2 % of control ([6]; 10^-6 M): 219.33% | MMP-2 % of IL-1 ([6]; 10^-8 M): 95.75% | MMP-2 % of control ([6]; 10^-8 M): 101.47% | TIMP-1 % of control ([7]; Day of Study 4, COPD subjects): 116.24% | TIMP-1 % of control ([7]; Day of Study 15, COPD subjects): 974.24% | TIMP-1 % of control, Mean [7, 9]: 978.67% | increase in TIMP-1 ([7]; human patient study): 10 fold | upregulation of TIMP-1 in COPD sputum, % of untreated levels ([7]; repeated dosing at 100 mg once daily): about 1000% | lung concentration relative to the level in plasma [8]: up to 10 times
